From ChEMBL document CHEMBL3763120, “Phenyl Benzenesulfonylhydrazides Exhibit Selective Indoleamine 2,3-Dioxygenase Inhibition with Potent in Vivo Pharmacodynamic Activity and Antitumor Efficacy” (J Med Chem, 2016)
The source made the active and inactive calls. The rule behind the calls is not given here.

Experiments:
[1] = target: T1, Indoleamine 2,3-dioxygenase 1 (Homo sapiens, UniProt P14902); assay: Inhibition of human Indoleamine 2,3-dioxygenase using L-tryptophan as substrate by emission fluorescence analysis
T1 sequence (P14902 whole entry): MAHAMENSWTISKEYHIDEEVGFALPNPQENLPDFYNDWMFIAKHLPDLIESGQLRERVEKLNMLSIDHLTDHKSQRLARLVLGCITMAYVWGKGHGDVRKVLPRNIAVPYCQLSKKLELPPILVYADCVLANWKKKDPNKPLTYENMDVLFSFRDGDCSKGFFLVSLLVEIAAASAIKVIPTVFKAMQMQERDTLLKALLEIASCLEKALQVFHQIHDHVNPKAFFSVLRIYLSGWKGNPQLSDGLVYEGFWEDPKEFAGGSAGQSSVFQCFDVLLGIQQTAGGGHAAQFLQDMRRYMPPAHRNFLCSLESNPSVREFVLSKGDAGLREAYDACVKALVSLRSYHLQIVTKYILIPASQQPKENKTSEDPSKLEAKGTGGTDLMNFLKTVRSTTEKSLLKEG

[2] = target: T1, Indoleamine 2,3-dioxygenase 1; assay: Inhibition of Indoleamine 2,3-dioxygenase in human HeLa cells in presence of L-tryptophan as substrate after 24 hrs in presence of L-tryptophan; type: cell-based
[3] = Cmax in Sprague-Dawley rat plasma at 10 mg/kg, po by LC-MS/MS analysis; type: ADME, organism-based; design: dose 10 mg/kg, route oral
[4] = (§1) Volume of distribution at steady state in Sprague-Dawley rat plasma at 2 mg/kg, iv by LC-MS/MS analysis; type: ADME, organism-based; conditions: Sprague-Dawley, plasma, read-out: Vdss
[5] = Tmax in Sprague-Dawley rat plasma at 10 mg/kg, po by LC-MS/MS analysis; type: ADME, organism-based
[6] = (§2) Half life in Sprague-Dawley rat plasma at 2 mg/kg, iv by LC-MS/MS analysis; type: ADME, organism-based; conditions: Sprague-Dawley, plasma
[7] = Half life in Sprague-Dawley rat plasma at 10 mg/kg, po by LC-MS/MS analysis; type: ADME, organism-based
[8] = Clearance in Sprague-Dawley rat plasma at 2 mg/kg, iv by LC-MS/MS analysis; type: ADME, organism-based
[9] = Oral bioavailability in Sprague-Dawley rat plasma at 10 mg/kg by LC-MS/MS analysis; type: ADME, organism-based
[10] = AUC (0 to infinity) in Sprague-Dawley rat plasma at 2 mg/kg, iv by LC-MS/MS analysis; type: ADME, organism-based; design: dose 2 mg/kg, route intravenous, time infinity
[11] = AUC (0 to infinity) in Sprague-Dawley rat plasma at 10 mg/kg, po by LC-MS/MS analysis; type: ADME, organism-based; design: dose 10 mg/kg, route oral, time infinity
[12] = Drug degradation in Sprague-Dawley rat plasma within 5 mins; type: ADME, cell-free; conditions: read-out: Drug degradation
B16-F10 = assay: Antitumor activity against mouse B16F10 cells xenografted in mouse at 400 mg/kg bid dosed daily for 2 weeks; type: functional, organism-based
Rattus norvegicus [13] = assay: as §1; type: ADME, organism-based; conditions: in vivo
Rattus norvegicus [14] = assay: as §2; type: ADME, organism-based; conditions: in vivo

| IC50 [1] [µM] | EC50 [2] [µM] | Cmax [3] [µg/mL] | Tmax [5] [h] | half-life [7] [h] | bioavailability [9] [%] | AUC(0-inf) [10] [µg·h/mL] | AUC(0-inf) [11] [µg·h/mL] | SMILES | other results |
| --- | --- | --- | --- | --- | --- | --- | --- | --- | --- |
| > 10 |  |  |  |  |  |  |  | O=C1Nc2ccc(S(=O)(=O)NNc3ccc(Br)cc3)cc2C1=O |  |
| 0.0758 | 0.365 |  |  |  |  |  |  | CN1C(=O)Cc2cc(S(=O)(=O)NNc3ccc(Br)cc3)ccc21 |  |
| 0.085 | 0.211 |  |  |  |  |  |  | O=c1ccc2cc(S(=O)(=O)NNc3ccc(Br)cc3)ccc2[nH]1 |  |
| 0.0699 | 0.0364 | 0.072 | 1.3 | 4.7 | 17 | 0.364 | 0.304 | CC1(C)C(=O)Nc2ccc(S(=O)(=O)NNc3ccc(Br)cc3)cc21 | Vd [4]: 13 L/kg; half-life [6]: 2.4 h; clearance [8]: 5.6 L/h/kg |
| 0.112 | 0.195 |  |  |  |  |  |  | O=C1CCCc2cc(S(=O)(=O)NNc3ccc(Br)cc3)ccc2N1 |  |
|  |  |  |  |  |  |  |  | O=C(O)c1cccc(S(=O)(=O)NNc2ccc(Br)cc2)c1 | metabolised at 5 min [12]: 80% |
| 0.0523 | 0.0306 |  |  |  |  |  |  | O=C1Nc2ccc(S(=O)(=O)NNc3ccc(Br)cc3)cc2C1(F)F |  |
| 0.0346 | 0.231 |  |  |  |  |  |  | CC(=O)N1CCc2cc(S(=O)(=O)NNc3ccc(Br)cc3)ccc21 |  |
| 0.122 | 0.0684 |  |  |  |  |  |  | Nc1nc2cc(S(=O)(=O)NNc3ccc(Br)cc3)ccc2[nH]1 |  |
| 0.0681 | 0.0896 | 2.05 | 4 | 1.7 | 35 | 5.58 | 9.73 | O=C1CCCN1c1ccc(S(=O)(=O)NNc2ccc(Br)cc2)cc1 | Vd [4]: 1 L/kg; half-life [6]: 1.5 h; clearance [8]: 0.378 L/h/kg |
| 0.0573 | 0.0631 | 0.124 | 1.3 | 3 | 13 | 0.594 | 0.382 | O=S(=O)(NNc1ccc(Br)cc1)c1ccc2[nH]c(O)nc2c1 | Vd [4]: 6 L/kg; half-life [6]: 0.8 h; clearance [8]: 3.43 L/h/kg |
| 0.047 | 0.135 |  |  |  |  |  |  | Cn1c(=O)n(C)c2cc(S(=O)(=O)NNc3ccc(Br)cc3)ccc21 |  |
|  |  | 1.19 | 0.7 | 2.7 | 37 | 1.74 | 3.22 | CC(=O)Nc1ccc(S(=O)(=O)NNc2ccc(Br)cc2)cc1 | Vd [4]: 1.5 L/kg; half-life [6]: 3.5 h; clearance [8]: 1.18 L/h/kg; Activity (B16-F10): inactive |
| 0.0727 | 0.067 | 0.063 | 5.3 | 8.9 | 11 | 1.35 | 0.763 | O=C1CCc2cc(S(=O)(=O)NNc3ccc(Br)cc3)ccc2N1 | Vdss (Rattus norvegicus [13]): 20.8 L/kg; t1/2 (Rattus norvegicus [14]): 2.7 h |
| 0.077 | 0.217 |  |  |  |  |  |  | O=C(CCN1CCOCC1)Nc1ccc(S(=O)(=O)NNc2ccc(Br)cc2)cc1 |  |
